Measurements reported in publication PMC2833264 (Photosynthesis research, 2009).
pKd: −log10 of the molar value.

Molecular target: T1, C. reinhardtii nitrite reductase (Chlamydomonas reinhardtii, UniProt Q9ZR67)
T1 sequence (Q9ZR67 29-589): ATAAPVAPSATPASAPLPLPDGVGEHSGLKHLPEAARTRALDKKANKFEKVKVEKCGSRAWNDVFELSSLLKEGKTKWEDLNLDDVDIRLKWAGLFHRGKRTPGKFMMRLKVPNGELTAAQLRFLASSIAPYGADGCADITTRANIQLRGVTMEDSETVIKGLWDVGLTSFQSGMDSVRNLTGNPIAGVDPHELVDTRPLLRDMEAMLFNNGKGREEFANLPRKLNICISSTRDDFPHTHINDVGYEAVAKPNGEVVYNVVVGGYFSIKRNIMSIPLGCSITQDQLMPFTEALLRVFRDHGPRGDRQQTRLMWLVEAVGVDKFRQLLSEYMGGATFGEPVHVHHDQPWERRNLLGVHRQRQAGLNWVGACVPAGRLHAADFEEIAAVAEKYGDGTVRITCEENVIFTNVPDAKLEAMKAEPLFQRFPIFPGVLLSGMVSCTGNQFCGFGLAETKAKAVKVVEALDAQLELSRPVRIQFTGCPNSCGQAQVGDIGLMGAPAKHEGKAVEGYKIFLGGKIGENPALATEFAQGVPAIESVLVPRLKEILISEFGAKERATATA
Test: spectral perturbation titration
Format: binding

Q: With `O=NO` [nitrite] as the compound, how does the pKd read?
A: The pKd was 4.30.
